From PubChem BioAssay (NCI)
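Interpolation was linear, between the two tested concentrations surrounding the appropriate level; five concentrations were tested over 48 hours in 96-well plates. TGI denotes the concentration required for complete inhibition of growth.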

What was measured:
Assay in all cases: NCI tumour cell line growth inhibition, 48 h
[1] = tested on: NCI-H23 lung
[2] = tested on: UACC-62 melanoma
[3] = tested on: A498 renal
[4] = tested on: HOP-18 NSCLC
[5] = tested on: A549 NSCLC
[6] = tested on: MALME-3M melanoma
[7] = tested on: COLO 205 colon
[8] = tested on: M19-MEL melanoma
[9] = tested on: SK-MEL-28 melanoma
[10] = tested on: HL-60(TB) leukemia
[11] = tested on: U251 CNS
[12] = tested on: HCT-15 colon
[13] = tested on: SK-MEL-5 melanoma
[14] = tested on: SW-620 colon
[15] = tested on: KM12 colon
[16] = tested on: SK-OV-3 ovarian
[17] = tested on: EKVX NSCLC
[18] = tested on: 786-0 renal
[19] = tested on: M14 melanoma
[20] = tested on: HT29 colon
[21] = tested on: CAKI-1 renal
[22] = tested on: LOX IMVI melanoma
[23] = tested on: NCI-H460 lung
[24] = tested on: XF 498 CNS
[25] = tested on: MOLT-4 leukemia
[26] = tested on: K-562 leukemia
[27] = tested on: TK-10 renal
[28] = tested on: OVCAR-8 ovarian
[29] = tested on: SR leukemia
[30] = tested on: UO-31 renal
[31] = tested on: SNB-75 CNS
[32] = tested on: OVCAR-4 ovarian
[33] = tested on: SK-MEL-2 melanoma
[34] = tested on: IGROV1 ovarian
[35] = tested on: HCC-2998 colon
[36] = tested on: HCT-116 colon
[37] = tested on: SF-539 CNS
[38] = tested on: OVCAR-5 ovarian
[39] = tested on: SNB-19 CNS
[40] = tested on: HOP-92 NSCLC
[41] = tested on: DLD-1 colon
[42] = tested on: SNB-78 CNS
[43] = tested on: KM20L2 colon
[44] = tested on: DMS 273 small cell lung
[45] = tested on: SF-295 CNS
[46] = tested on: SN12C renal
[47] = tested on: LXFL 529 NSCLC
[48] = tested on: ACHN renal
[49] = tested on: NCI-H226 lung
[50] = tested on: CCRF-CEM leukemia
[51] = tested on: HOP-62 NSCLC
[52] = tested on: RXF 393 renal
[53] = tested on: SF-268 CNS
[54] = tested on: OVCAR-3 ovarian
[55] = tested on: NCI-H522 lung
[56] = tested on: UACC-257 melanoma
[57] = tested on: RPMI-8226 leukemia
[58] = tested on: DMS 114 small cell lung

Measured: TGI

COC(=O)[C@@]12C(=O)CCC(=O)C1C1C(=CC2C)O[C@@H]2OC3(CCCCC3)O[C@H]12 (stereo partly drawn)
83.2 µM: [57]
70.5 µM: [25]
> 93.6 µM: [24]
> 80.2 µM: [28]
> 81 µM: [50]
58.8 µM: [29]
38.1 µM: [55]
59.1 µM: [10]
> 100 µM: all other assays above
